Reference: patent US10160726B2, “Quinolone derivatives as antibacterials” (priority 2014, dated 2018)
≈ marks a conversion by molar mass, not a printed value. Structures can show the parent of a compound that is named as a salt. Where two headings read alike, the source gives them in different places.

Key:
[1] = target: E. coli DNA gyrase (GyrA-B) (Escherichia coli, UniProt P0AES4); assay: Supercoiling assay of E. coli gyrase; assay type: biochemical
Protocol: Method 1: Supercoiling Assay of E. Coli Gyrase
Enzymatic activity of E. coli DNA gyrase reconstituted from its purified subunits was assessed by monitoring the introduction of supercoils into the relaxed plasmid pHOT-1 (TopoGEN, TG2035-3). To form the functional gyrase A2B2 heterotetrameric enzyme, equal molar concentrations of the GyrA and GyrB subunits were combined at high protein concentration (500 nM) and incubated on ice for 1 hour prior to assay start in reaction buffer without ATP or the pHOT-1 plasmid. The reaction mixture (25 μl) contained 10 nM enzyme, 10 ng/μl pHOT-1, 1 mM ATP, 35 mM Tris-HCl pH 7.5, 24 mM KCl, 4 mM MgCl2, 2 mM DTT, 1.8 mM spermidine, 6.5% glycerol, and 100 μg/ml bovine serum albumin. The reaction was carried out at 37° C. for 90 minutes and terminated by the addition of 2.5 μl of 10× stop solution (0.9% SDS, 50% glycerol, 0.05% bromophenol blue). […] Gels were stained with ethidium bromide (0.5 μg/ml) for 30 minutes and destained in water for 20 minutes. All gels were analyzed using the BIO-RAD ChemiDocTm XRS+ with Image Lab 3.0 software. The 50% inhibition concentration (IC50) was determined as being the compound concentration at which the supercoiled band was reduced by 50% from the DMSO drug free control (Microsoft Excel 2010 IDBS XLfit, GraftPad Prism 6).

[2] = target: E. coli DNA topoisomerase IV (Topo IV, ParC-E) (Escherichia coli, UniProt P0AFI2); assay: Decatenation assay of E. coli Topo IV; assay type: biochemical
E. coli DNA topoisomerase IV (Topo IV, ParC-E), sequence (P0AFI2 whole entry): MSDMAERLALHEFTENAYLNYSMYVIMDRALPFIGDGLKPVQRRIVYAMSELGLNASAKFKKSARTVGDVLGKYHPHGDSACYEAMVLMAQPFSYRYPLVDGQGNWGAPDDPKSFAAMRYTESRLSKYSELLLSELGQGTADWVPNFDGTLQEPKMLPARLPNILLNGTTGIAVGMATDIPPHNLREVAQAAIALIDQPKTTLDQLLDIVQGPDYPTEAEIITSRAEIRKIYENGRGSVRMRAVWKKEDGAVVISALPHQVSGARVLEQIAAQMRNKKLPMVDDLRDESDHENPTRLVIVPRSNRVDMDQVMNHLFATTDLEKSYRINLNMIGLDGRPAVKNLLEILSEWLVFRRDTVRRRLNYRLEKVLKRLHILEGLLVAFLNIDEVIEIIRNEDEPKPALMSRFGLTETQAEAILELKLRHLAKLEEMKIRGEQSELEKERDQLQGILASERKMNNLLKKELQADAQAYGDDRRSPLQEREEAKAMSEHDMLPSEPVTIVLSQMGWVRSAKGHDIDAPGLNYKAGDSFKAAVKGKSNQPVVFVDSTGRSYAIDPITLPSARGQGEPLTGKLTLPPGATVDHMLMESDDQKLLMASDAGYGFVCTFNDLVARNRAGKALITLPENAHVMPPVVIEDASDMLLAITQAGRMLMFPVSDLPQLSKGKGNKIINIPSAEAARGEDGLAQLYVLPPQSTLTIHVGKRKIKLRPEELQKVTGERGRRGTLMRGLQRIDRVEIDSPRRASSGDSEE
E. coli DNA topoisomerase IV (Topo IV, ParC-E), sequence (P20083 whole entry, further chain): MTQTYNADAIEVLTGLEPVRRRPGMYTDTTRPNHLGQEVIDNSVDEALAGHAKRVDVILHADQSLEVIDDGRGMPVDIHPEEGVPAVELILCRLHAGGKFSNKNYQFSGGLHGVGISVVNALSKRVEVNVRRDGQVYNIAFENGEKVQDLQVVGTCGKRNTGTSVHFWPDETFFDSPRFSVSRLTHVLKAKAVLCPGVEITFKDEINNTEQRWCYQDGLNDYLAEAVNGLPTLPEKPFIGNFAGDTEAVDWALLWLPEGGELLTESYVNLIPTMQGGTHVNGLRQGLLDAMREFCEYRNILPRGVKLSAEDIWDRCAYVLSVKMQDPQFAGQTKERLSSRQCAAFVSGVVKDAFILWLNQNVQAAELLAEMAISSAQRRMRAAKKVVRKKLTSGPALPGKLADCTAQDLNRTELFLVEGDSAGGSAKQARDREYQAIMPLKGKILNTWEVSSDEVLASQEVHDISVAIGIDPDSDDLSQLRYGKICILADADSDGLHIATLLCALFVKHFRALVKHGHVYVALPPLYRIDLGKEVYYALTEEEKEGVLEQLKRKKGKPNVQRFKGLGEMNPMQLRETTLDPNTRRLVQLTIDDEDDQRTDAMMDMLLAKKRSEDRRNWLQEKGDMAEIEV
Protocol: Method 2: Decatenation Assay of E. Coli Topo IV
Enzymatic activity of the E. coli DNA topoisomerase IV (Topo IV) reconstituted from its purified subunits was monitored by the decatenation of kinetoplast DNA into minicircles (kDNA, TopoGEN, TG2013-3). To form the functional Topo IV C2E2 heterotetrameric enzyme, equal molar concentrations of the ParC and ParE subunits were combined at high protein concentration (500 nM) and incubated on ice for 1 hour prior to assay start in reaction buffer without ATP or the kDNA. […] The reaction was carried out at 37° C. for 2 hours and terminated by the addition of 2.5 μl of 10× stop solution (0.9% SDS, 50% glycerol, 0.05% bromophenol blue). […] Gels were stained with ethidium bromide (0.5 μg/ml) for 30 minutes and distained in water for 20 minutes. All gels were analyzed using the BIO-RAD ChemiDoc™ XRS^+ with Image Lab 3.0 software. The 50% inhibitor concentration (IC50) was determined as being the compound concentration at which the presence of the kDNA minicircles in the gel was reduced by 50% from the DMSO drug free control (Microsoft Excel 2010 IDBS XLfit, Graph Pad Prism 6).

[3] = system: E. coli ATCC 25922 (NB27001); assay: MIC, broth microdilution (CLSI); assay type: cell-based; conditions: Escherichia coli, ATCC25922; E. coli ATCC 25922; 35° C., 20 hours; read-out: Antibacterial activity (MIC) NB27001
[4] = system: E. coli NB27177 (efflux deficient CGSC 11430, ΔtolC732::kan); assay: microbe, parasite or virus in culture; assay type: cell-based; conditions: Escherichia coli, 20 h, read-out: Antibacterial activity (MIC) NB27177
[5] = system: P. aeruginosa NB52019 (wild-type PAO1); assay: MIC, broth microdilution (CLSI); assay type: cell-based; conditions: Pseudomonas aeruginosa, read-out: Antibacterial activity (MIC) NB52019
[6] = system: P. aeruginosa NB52023 (efflux deficient K1542, ΔmexX ΔmexB); assay: microbe, parasite or virus in culture; assay type: cell-based; conditions: Pseudomonas aeruginosa, 20 h, read-out: Antibacterial activity (MIC) NB52023
[7] = system: P. aeruginosa NB52023-CDK0006 (gyrA T83I, parC S87L); assay: microbe, parasite or virus in culture; assay type: cell-based; conditions: Pseudomonas aeruginosa, 20 h, read-out: Antibacterial activity (MIC) NB52023-CDK0006
[8] = system: S. aureus ATCC 29213 (NB01001); assay: MIC, broth microdilution (CLSI); assay type: cell-based; conditions: Staphylococcus aureus, ATCC29213; S. aureus ATCC 29213; 35° C., 20 hours; read-out: Antibacterial activity (MIC) NB01001
[9] = system: S. aureus NB01006-AVR005 (gyrA S84L, grlA S80F, grlB E471K); assay: microbe, parasite or virus in culture; assay type: cell-based; conditions: Staphylococcus aureus, 20 h, read-out: Antibacterial activity (MIC) NB01006-AVR005
[10] = P. aeruginosa wild-type PAO1, 35° C., 20 hours
[11] = supercoiling activity of E. coli gyrase (GyrA-B), read-out: GyrA-B IC50 (Enzyme)
[12] = decatenation activity of E. coli topoIV (ParC-E), read-out: ParC-E IC50 (Enzyme)

E. coli DNA gyrase (GyrA-B), sequence (P0AES4 whole entry): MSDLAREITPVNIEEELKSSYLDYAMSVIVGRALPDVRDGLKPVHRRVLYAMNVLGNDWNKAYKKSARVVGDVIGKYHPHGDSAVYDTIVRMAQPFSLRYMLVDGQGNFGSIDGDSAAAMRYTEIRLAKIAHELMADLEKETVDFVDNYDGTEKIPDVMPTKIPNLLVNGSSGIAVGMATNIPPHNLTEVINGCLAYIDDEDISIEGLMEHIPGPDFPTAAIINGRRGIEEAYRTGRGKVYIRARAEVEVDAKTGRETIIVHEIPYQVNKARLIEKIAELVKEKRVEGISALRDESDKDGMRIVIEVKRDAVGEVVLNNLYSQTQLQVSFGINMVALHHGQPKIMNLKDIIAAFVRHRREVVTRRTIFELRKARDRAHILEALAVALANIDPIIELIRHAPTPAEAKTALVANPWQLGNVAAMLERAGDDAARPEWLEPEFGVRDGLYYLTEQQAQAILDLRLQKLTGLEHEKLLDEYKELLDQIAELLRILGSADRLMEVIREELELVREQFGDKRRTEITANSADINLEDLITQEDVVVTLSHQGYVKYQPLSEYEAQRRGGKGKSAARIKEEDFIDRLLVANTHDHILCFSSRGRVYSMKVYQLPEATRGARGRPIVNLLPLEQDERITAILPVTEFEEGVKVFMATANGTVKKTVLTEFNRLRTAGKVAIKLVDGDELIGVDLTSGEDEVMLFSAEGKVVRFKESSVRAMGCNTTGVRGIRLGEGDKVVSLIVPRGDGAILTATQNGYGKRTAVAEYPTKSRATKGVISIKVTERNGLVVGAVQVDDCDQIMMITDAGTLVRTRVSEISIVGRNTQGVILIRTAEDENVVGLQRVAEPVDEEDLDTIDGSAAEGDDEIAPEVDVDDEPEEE

| SMILES | IC50 [1] | IC50 [2] | MIC [3] | MIC [4] | MIC [5, 10] | MIC [6] | MIC [7] | MIC [8] | MIC [9] | IC50 [1, 11] | IC50 [2, 12] | MIC ([5]; PAO1, 20 h) |
| --- | --- | --- | --- | --- | --- | --- | --- | --- | --- | --- | --- | --- |
| Cc1c(N2CC[C@@H]([C@H](C)N)C2)c(F)cc2ccc(=O)n(C3CC3)c12.Cl [Example 9.1, 7-((R)-3-((S)-1-aminoethyl)pyrrolidin-1-yl)-1-cyclopropyl-6-fluoro-8-methylquinolin-2(1H)-one hydrochloride salt] | 1300 nM | 9910 nM | 1 µg/mL | < 0.03 µg/mL | 16 µg/mL | 4 µg/mL | 8 µg/mL | 0.06 µg/mL | 0.06 µg/mL | – | – | – |
| Cc1c(N2CC[C@@H]([C@H](C)N)C2)c(F)cc2c(-c3n[nH]c(=O)o3)cc(=O)n(C3CC3)c12 [Example 42, 5-(7-((R)-3-((S)-1-aminoethyl)pyrrolidin-1-yl)-1-cyclopropyl-6-fluoro-8-methyl-2-oxo-1,2-dihydroquinolin-4-yl)-1,3,4-oxadiazol-2(3H)-one] | – | – | 8 µg/mL (≈ 19.3 µM) | 0.25 µg/mL (≈ 0.605 µM) | – | 8 µg/mL (≈ 19.3 µM) | 32 µg/mL (≈ 77.4 µM) | 0.5 µg/mL (≈ 1.21 µM) | 0.5 µg/mL (≈ 1.21 µM) | 830 nM | 1860 nM | > 32 µg/mL |
| Cc1c(N2CCNCC2)c(F)cc2ccc(=O)n(C3CC3)c12 [Example 9.3, 1-Cyclopropyl-6-fluoro-8-methyl-7-(piperazin-1-yl)quinolin-2(1H)-one] | 11900 nM | > 100000 nM | 4 µg/mL (≈ 13.3 µM) | 0.25 µg/mL (≈ 0.83 µM) | 32 µg/mL (≈ 106 µM) | 16 µg/mL (≈ 53.1 µM) | 16 µg/mL (≈ 53.1 µM) | 16 µg/mL (≈ 53.1 µM) | 16 µg/mL (≈ 53.1 µM) | – | – | – |
| Cc1c(N2CC[C@@H]([C@H](C)N)C2)ccc2ccc(=O)n(C3CC3)c12 [Example 76, 7-((R)-3-((S)-1-aminoethyl)pyrrolidin-1-yl)-1-cyclopropyl-8-methylquinolin-2(1H)-one trifluoroacetic acid salt] | – | – | 4 µg/mL | 0.125 µg/mL | – | 8 µg/mL | 16 µg/mL | 0.25 µg/mL | 0.5 µg/mL | 6800 nM | 38500 nM | 32 µg/mL |
| Cc1c(N2CC[C@@H]([C@H](C)N)C2)ccc2c(OCC3CCOCC3)cc(=O)n(C3CC3)c12 [Example 73, 7-((R)-3-((S)-1-aminoethyl)pyrrolidin-1-yl)-1-cyclopropyl-8-methyl-4-((tetrahydro-2H-pyran-4-yl)methoxy)quinolin-2(1H)-one TFA salt] | – | – | 32 µg/mL | 2 µg/mL | – | > 32 µg/mL | > 32 µg/mL | 1 µg/mL | 4 µg/mL | 3010 nM | 4970 nM | > 32 µg/mL |
| Cc1c(N2CC[C@@H]([C@H](C)N)C2)ccc2cc(O)c(=O)n(C3CC3)c12 [Example 79, 7-((R)-3-((S)-1-aminoethyl)pyrrolidin-1-yl)-1-cyclopropyl-3-hydroxy-8-methylquinolin-2(1H)-one TFA salt] | – | – | 8 µg/mL | 1 µg/mL | – | > 32 µg/mL | > 32 µg/mL | 2 µg/mL | 8 µg/mL | 2440 nM | 1840 nM | > 32 µg/mL |
| Cc1c(N2CC[C@@H]([C@H](C)N)C2)ccc2c(OCCN(C)C)cc(=O)n(C3CC3)c12 [Example 74, 7-((R)-3-((S)-1-aminoethyl)pyrrolidin-1-yl)-1-cyclopropyl-4-(2-(dimethylamino)ethoxy)-8-methylquinolin-2(1H)-one TFA salt] | – | – | 8 µg/mL | 0.25 µg/mL | – | 8 µg/mL | 16 µg/mL | 1 µg/mL | 2 µg/mL | 310 nM | 240 nM | 32 µg/mL |
| Cc1c(-c2ccc(N)nc2)c(F)cc2ccc(=O)n(C3CC3)c12 [Example 10, 7-(6-Aminopyridin-3-yl)-1-cyclopropyl-6-fluoro-8-methylquinolin-2(1H)-one] | – | – | 4 µg/mL (≈ 12.9 µM) | < 0.03 µg/mL | – | 4 µg/mL (≈ 12.9 µM) | 8 µg/mL (≈ 25.9 µM) | 0.25 µg/mL (≈ 0.808 µM) | 0.25 µg/mL (≈ 0.808 µM) | 1200 nM | 1930 nM | > 32 µg/mL |
| Cc1c(N2CC[C@H](N)C2)c(F)cc2c(C#N)cc(=O)n(C3CC3)c12 [Example 30, (S)-7-(3-aminopyrrolidin-1-yl)-1-cyclopropyl-6-fluoro-8-methyl-2-oxo-1,2-dihydroquinoline-4-carbonitrile] | – | – | 1 µg/mL (≈ 3.06 µM) | < 0.03 µg/mL | – | 1 µg/mL (≈ 3.06 µM) | 4 µg/mL (≈ 12.3 µM) | 0.5 µg/mL (≈ 1.53 µM) | 0.5 µg/mL (≈ 1.53 µM) | 980 nM | 14600 nM | 8 µg/mL (≈ 24.5 µM) |
| Cc1c(N2CC[C@@H]([C@H](C)N)C2)c(F)cc2c(C#N)cc(=O)n(C3CC3)c12 [Example 27, 7-((R)-3-((S)-1-aminoethyl)pyrrolidin-1-yl)-1-cyclopropyl-6-fluoro-8-methyl-2-oxo-1,2-dihydroquinoline-4-carbonitrile] | – | – | 1 µg/mL (≈ 2.82 µM) | < 0.03 µg/mL | – | 1 µg/mL (≈ 2.82 µM) | 2 µg/mL (≈ 5.64 µM) | < 0.03 µg/mL | < 0.03 µg/mL | 130 nM | 590 nM | 4 µg/mL (≈ 11.3 µM) |
| Cc1c(N2CC[C@@H]([C@H](C)N)C2)c(F)cc2c(C(=O)NO)cc(=O)n(C3CC3)c12 [Example 43, 7-((R)-3-((S)-1-aminoethyl)pyrrolidin-1-yl)-1-cyclopropyl-6-fluoro-N-hydroxy-8-methyl-2-oxo-1,2-dihydroquinoline-4-carboxamide] | – | – | 32 µg/mL (≈ 82.4 µM) | 4 µg/mL (≈ 10.3 µM) | – | > 32 µg/mL | > 32 µg/mL | 8 µg/mL (≈ 20.6 µM) | 16 µg/mL (≈ 41.2 µM) | 560 nM | 3350 nM | > 32 µg/mL |
| Cc1c(N2CC[C@@H]([C@H](C)N)C2)c(F)cc2c(C(=O)O)cc(=O)n(C3CC3)c12 [Example 33, 7-((R)-3-((S)-1-aminoethyl)pyrrolidin-1-yl)-1-cyclopropyl-6-fluoro-8-methyl-2-oxo-1,2-dihydroquinoline-4-carboxylic acid] | – | – | 32 µg/mL (≈ 85.7 µM) | 16 µg/mL (≈ 42.8 µM) | – | > 32 µg/mL | > 32 µg/mL | 32 µg/mL (≈ 85.7 µM) | > 32 µg/mL | 16300 nM | – | 32 µg/mL (≈ 85.7 µM) |
| Cc1c(N2CC[C@@H]([C@H](C)N)C2)c(F)cc2c(CN)cc(=O)n(C3CC3)c12 [Example 45, 7-((R)-3-((S)-1-aminoethyl)pyrrolidin-1-yl)-4-(aminomethyl)-1-cyclopropyl-6-fluoro-8-methylquinolin-2(1H)-one] | – | – | 1 µg/mL (≈ 2.79 µM) | 0.06 µg/mL (≈ 0.167 µM) | – | 0.5 µg/mL (≈ 1.39 µM) | 2 µg/mL (≈ 5.58 µM) | 0.25 µg/mL (≈ 0.697 µM) | 0.5 µg/mL (≈ 1.39 µM) | < 100 nM | 240 nM | 2 µg/mL (≈ 5.58 µM) |
| C#Cc1cc(=O)n(C2CC2)c2c(C)c(N3CC[C@@H]([C@H](C)N)C3)c(F)cc12 [Example 25, 7-((R)-3-((S)-1-aminoethyl)pyrrolidin-1-yl)-1-cyclopropyl-4-ethynyl-6-fluoro-8-methylquinolin-2(1H)-one] | – | – | 4 µg/mL (≈ 11.3 µM) | 0.06 µg/mL (≈ 0.17 µM) | – | 2 µg/mL (≈ 5.66 µM) | 4 µg/mL (≈ 11.3 µM) | 0.06 µg/mL (≈ 0.17 µM) | < 0.03 µg/mL | 1030 nM | 6460 nM | 8 µg/mL (≈ 22.6 µM) |
